For 38 molecules, Ki, solubility and Ratio Ki results are on record in ChEMBL document CHEMBL3259683, “Carbonic anhydrase inhibitors. Inhibition of human cytosolic isoforms I and II with (reduced) Schiff's bases incorporating sulfonamide, carboxylate and carboxymethyl moieties” (Bioorg Med Chem, 2014).

For one data set, the target named is Carbonic anhydrase 1 (Homo sapiens, UniProt P00915). The experiment in a line: Inhibition of human carbonic anhydrase 1-catalyzed CO2 hydration preincubated for 10 mins by stopped-flow assay.
Data set [1] can be described thus: Solubility of the compound in water. The note with it: buffer. The data set is classed as physicochemical.
For a further data set, the target named is Carbonic anhydrase 2 (Homo sapiens, UniProt P00918). The experiment in a line: Inhibition of human carbonic anhydrase 2-catalyzed CO2 hydration preincubated for 10 mins by stopped-flow assay.
Another data set is filed under the species Homo sapiens. The data set can be described thus: Selectivity ratio of Ki for human carbonic anhydrase 2 to Ki for human carbonic anhydrase 1.

Chain of Carbonic anhydrase 1 (P00915 whole entry): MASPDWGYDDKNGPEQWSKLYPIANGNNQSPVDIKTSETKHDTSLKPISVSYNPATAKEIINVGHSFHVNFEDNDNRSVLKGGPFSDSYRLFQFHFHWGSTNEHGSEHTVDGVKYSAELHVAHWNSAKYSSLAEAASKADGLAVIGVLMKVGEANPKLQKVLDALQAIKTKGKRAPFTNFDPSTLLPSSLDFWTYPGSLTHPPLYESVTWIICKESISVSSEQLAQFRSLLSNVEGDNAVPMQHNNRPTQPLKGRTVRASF

Usually Ki stands for the dissociation constant of the complex between target and ligand, obtained from inhibition or displacement. A low value points to higher affinity. For `COC(=O)c1ccc(/N=C/c2cc(OC)ccc2O)cc1`, on Carbonic anhydrase 1, the inhibition constant (Ki) was found to be 7450 nM. In addition, the solubility entry in data set [1] is recorded as “soluble”.
The corresponding values for `COc1ccc(O)c(/C=N/Cc2ccc(S(N)(=O)=O)cc2)c1.Cl` are 92 nM and “soluble”.
For `O=C(O)c1ccc(NCc2ccccc2)cc1` the same measures were 56.7 nM and “soluble”.
As for `NS(=O)(=O)c1ccc(CCNCc2ccc(O)cc2)cc1`, the Ki on Carbonic anhydrase 1 was found to be 92.1 nM; on Carbonic anhydrase 2 it was 236 nM. For the same molecule, the solubility entry in data set [1] was “soluble”.
Consider `NS(=O)(=O)c1ccc(CCNCc2ccccc2)cc1`, for which the solubility result in data set [1] was “soluble”.
`COc1ccc(O)c(CNc2ccc(S(N)(=O)=O)cc2)c1`: the Ki at Carbonic anhydrase 1 was 23.5 nM. Besides, in data set [1], the solubility result is listed as “soluble”.
For `O=C(O)c1ccc(/N=C/c2ccc(O)cc2)cc1`, the solubility entry in data set [1] is recorded as “soluble”.
`NS(=O)(=O)c1ccc(/N=C/c2ccccc2)cc1` gave a Ki at Carbonic anhydrase 1 of 311 nM. Further, the solubility result in data set [1] is “soluble”.
With `CC(C)(C)c1ccc(CNCCc2ccc(S(N)(=O)=O)cc2)cc1`, the Ki was 50.3 nM at Carbonic anhydrase 1 and 8.6 nM on Carbonic anhydrase 2. For the same molecule, the solubility entry in data set [1] is “soluble”.
With `CC(C)(C)c1ccc(/C=N/c2ccc(S(N)(=O)=O)cc2)cc1`, on Carbonic anhydrase 1, affinity was put at a Ki of 85 nM. For the same molecule, the solubility result in data set [1] is listed as “soluble”.
For `CC(C)(C)c1ccc(CNc2ccc(C(=O)O)cc2)cc1` the same measures were 266 nM and “soluble”.
For `Cl.NS(=O)(=O)c1ccc(C/N=C/c2ccccc2)cc1` the same measures were 93 nM and “soluble”.
Regarding `COc1ccc(O)c(/C=N/CCc2ccc(S(N)(=O)=O)cc2)c1`, the Ki on Carbonic anhydrase 1 is 70 nM; at Carbonic anhydrase 2 it was 12.6 nM. For the same molecule, the solubility result in data set [1] is reported as “soluble”.
Consider `COc1ccc(O)c(CNc2ccc(C(=O)O)cc2)c1`, for which the Ki on Carbonic anhydrase 1 came out at 189 nM. Besides, the solubility entry in data set [1] is recorded as “soluble”.
As to `O=C(O)c1ccc(NCc2ccc(O)cc2)cc1`, the affinity on Carbonic anhydrase 1 corresponds to a Ki of 116 nM. Further, the solubility entry in data set [1] is given as “soluble”.
`CC(C)(C)c1ccc(/C=N/c2ccc(C(=O)O)cc2)cc1` yielded a Ki on Carbonic anhydrase 1 of 8270 nM. Further, in data set [1], the solubility entry was “soluble”.
On Carbonic anhydrase 1, `COC(=O)c1ccc(NCc2cc(OC)ccc2O)cc1` returned a Ki of 228 nM. For the same molecule, in the data set listed under Homo sapiens, the Ratio Ki stood at 23. In addition, the solubility result in data set [1] is on record as “soluble”.
As for `NS(=O)(=O)c1ccc(/N=C/c2ccc(O)cc2)cc1`, the inhibition constant Ki stood at 80 nM on Carbonic anhydrase 1 and 11.1 nM on Carbonic anhydrase 2. Also, the solubility entry in data set [1] is listed as “soluble”.
As for `COc1ccc(O)c(CNCCc2ccc(S(N)(=O)=O)cc2)c1`, the Ki on Carbonic anhydrase 1 was 56 nM; on Carbonic anhydrase 2, 51.5 nM. In addition, in data set [1], the solubility entry is given as “soluble”.
In the case of `COC(=O)c1ccc(/N=C/c2ccc(C(C)(C)C)cc2)cc1`, the Ki at Carbonic anhydrase 1 stood at 7460 nM. Moreover, the solubility entry in data set [1] was “soluble”.
For `COc1ccc(O)c(CNCc2ccc(S(N)(=O)=O)cc2)c1.Cl` the same measures were 51.9 nM and “soluble”.
For `COC(=O)c1ccc(NCc2ccc(O)cc2)cc1` the same measures were 209 nM and “soluble”.
For `CC(C)(C)c1ccc(CNCc2ccc(S(N)(=O)=O)cc2)cc1.Cl` the same measures were 25.5 nM and “soluble”.
Take `NS(=O)(=O)c1ccc(CC/N=C/c2ccc(O)cc2)cc1`: the values for the Ki at Carbonic anhydrase 1 and on Carbonic anhydrase 2 were 105 nM and 43 nM, respectively. Also, in data set [1], the solubility entry is “soluble”.
In the case of `CC(C)(C)c1ccc(CNc2ccc(S(N)(=O)=O)cc2)cc1`, the Ki on Carbonic anhydrase 1 is 18.7 nM. In addition, the solubility result in data set [1] is recorded as “soluble”.
For `Cl.NS(=O)(=O)c1ccc(CNCc2ccccc2)cc1` the same measures were 30.3 nM and “soluble”.
For `COc1ccc(O)c(/C=N/c2ccc(S(N)(=O)=O)cc2)c1` the same measures were 52 nM and “soluble”.
`CC(C)(C)c1ccc(/C=N/Cc2ccc(S(N)(=O)=O)cc2)cc1.Cl` had a Ki on Carbonic anhydrase 1 of 72 nM. The solubility result in data set [1] was “soluble”.
As to `CC(C)(C)c1ccc(/C=N/CCc2ccc(S(N)(=O)=O)cc2)cc1`, the values for the inhibition constant (Ki) on Carbonic anhydrase 1 and on Carbonic anhydrase 2 were 665 nM and 11.2 nM, respectively. In addition, the solubility entry in data set [1] is recorded as “soluble”.
`COC(=O)c1ccc(NCc2ccccc2)cc1` registered a Ki at Carbonic anhydrase 1 of 200 nM. In addition, in the data set listed under Homo sapiens, the Ratio Ki came out at 111. The solubility result in data set [1] is reported as “soluble”.
Regarding `NS(=O)(=O)c1ccc(CC/N=C/c2ccccc2)cc1`, the solubility entry in data set [1] is “soluble”.
Take `COC(=O)c1ccc(/N=C/c2ccc(O)cc2)cc1`: the affinity at Carbonic anhydrase 1 corresponds to a Ki of 1040 nM. For the same molecule, the solubility entry in data set [1] was “soluble”.
In turn, `Cl.NS(=O)(=O)c1ccc(CNCc2ccc(O)cc2)cc1` came in with a Ki on Carbonic anhydrase 1 of 59.5 nM. The solubility result in data set [1] was “soluble”.
As to `O=C(O)c1ccc(/N=C/c2ccccc2)cc1`, the Ki at Carbonic anhydrase 1 was 1230 nM. In addition, the solubility entry in data set [1] is “soluble”.
For `COc1ccc(O)c(/C=N/c2ccc(C(=O)O)cc2)c1` the same measures were 1290 nM and “soluble”.
The corresponding values for `COC(=O)c1ccc(/N=C/c2ccccc2)cc1` are 8600 nM and “soluble”.
On Carbonic anhydrase 1, `COC(=O)c1ccc(NCc2ccc(C(C)(C)C)cc2)cc1` came in with an inhibition constant (Ki) of 251 nM. In data set [1], the solubility result was “soluble”.
`NS(=O)(=O)c1ccc(NCc2ccc(O)cc2)cc1`: the Ki was 29 nM at Carbonic anhydrase 1 and 702 nM on Carbonic anhydrase 2. The solubility result in data set [1] is on record as “soluble”.
